Reference: PubChem BioAssay (NCI)
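96-well plates; 48 h exposure; 5 concentrations. Endpoints by linear interpolation between flanking doses. Not reached: highest tested concentration assigned. TGI denotes the concentration required for complete inhibition of growth.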

Legend:
Experiment in all cases: NCI-60 cell line screen, 48 h
CCRF-CEM leukemia = system: CCRF-CEM leukemia
MDA-MB-231 breast = system: MDA-MB-231 breast
A498 renal = system: A498 renal
MCF7 breast = system: MCF7 breast
UACC-257 melanoma = system: UACC-257 melanoma
SNB-19 CNS = system: SNB-19 CNS
UO-31 renal = system: UO-31 renal
TK-10 renal = system: TK-10 renal
RPMI-8226 leukemia = system: RPMI-8226 leukemia
HCT-116 colon = system: HCT-116 colon
IGROV1 ovarian = system: IGROV1 ovarian
SR leukemia = system: SR leukemia
A549 NSCLC = system: A549 NSCLC
SF-268 CNS = system: SF-268 CNS
NCI-H23 lung = system: NCI-H23 lung
BT-549 breast = system: BT-549 breast
NCI/ADR-RES ovarian = system: NCI/ADR-RES ovarian
EKVX NSCLC = system: EKVX NSCLC
RXF 393 renal = system: RXF 393 renal
MDA-MB-435 = system: MDA-MB-435
MDA-N = system: MDA-N
OVCAR-5 ovarian = system: OVCAR-5 ovarian
NCI-H226 lung = system: NCI-H226 lung
OVCAR-4 ovarian = system: OVCAR-4 ovarian
K-562 leukemia = system: K-562 leukemia
DU-145 prostate = system: DU-145 prostate
HT29 colon = system: HT29 colon
SF-295 CNS = system: SF-295 CNS
SK-MEL-5 melanoma = system: SK-MEL-5 melanoma
LOX IMVI melanoma = system: LOX IMVI melanoma
SK-MEL-28 melanoma = system: SK-MEL-28 melanoma
SF-539 CNS = system: SF-539 CNS
HOP-92 NSCLC = system: HOP-92 NSCLC
SNB-75 CNS = system: SNB-75 CNS
UACC-62 melanoma = system: UACC-62 melanoma
T-47D breast = system: T-47D breast
KM12 colon = system: KM12 colon
MALME-3M melanoma = system: MALME-3M melanoma
786-0 renal = system: 786-0 renal
HOP-62 NSCLC = system: HOP-62 NSCLC
SN12C renal = system: SN12C renal
ACHN renal = system: ACHN renal
M14 melanoma = system: M14 melanoma
SW-620 colon = system: SW-620 colon
SK-OV-3 ovarian = system: SK-OV-3 ovarian
U251 CNS = system: U251 CNS
HCT-15 colon = system: HCT-15 colon
NCI-H460 lung = system: NCI-H460 lung
COLO 205 colon = system: COLO 205 colon
OVCAR-3 ovarian = system: OVCAR-3 ovarian
HCC-2998 colon = system: HCC-2998 colon
HS 578T breast = system: HS 578T breast
CAKI-1 renal = system: CAKI-1 renal
PC-3 prostate = system: PC-3 prostate
NCI-H522 lung = system: NCI-H522 lung
OVCAR-8 ovarian = system: OVCAR-8 ovarian
HL-60(TB) leukemia = system: HL-60(TB) leukemia
MOLT-4 leukemia = system: MOLT-4 leukemia

C1=C(c2ccccc2)C(N2CCOCC2)Oc2ccccc21 (stereo not drawn)
TGI (CCRF-CEM leukemia): > 100 µM
TGI (MDA-MB-231 breast): > 100 µM
TGI (A498 renal): 92.3 µM
TGI (MCF7 breast): > 100 µM
TGI (UACC-257 melanoma): > 100 µM
TGI (SNB-19 CNS): > 100 µM
TGI (UO-31 renal): > 100 µM
TGI (TK-10 renal): > 100 µM
TGI (RPMI-8226 leukemia): > 100 µM
TGI (HCT-116 colon): > 100 µM
TGI (IGROV1 ovarian): > 100 µM
TGI (SR leukemia): > 100 µM
TGI (A549 NSCLC): > 100 µM
TGI (SF-268 CNS): > 100 µM
TGI (NCI-H23 lung): > 100 µM
TGI (BT-549 breast): > 100 µM
TGI (NCI/ADR-RES ovarian): > 100 µM
TGI (EKVX NSCLC): > 100 µM
TGI (RXF 393 renal): > 100 µM
TGI (MDA-MB-435): > 100 µM
TGI (MDA-N): > 100 µM
TGI (OVCAR-5 ovarian): > 100 µM
TGI (NCI-H226 lung): > 100 µM
TGI (OVCAR-4 ovarian): > 100 µM
TGI (K-562 leukemia): > 100 µM
TGI (DU-145 prostate): > 100 µM
TGI (HT29 colon): > 100 µM
TGI (SF-295 CNS): > 100 µM
TGI (SK-MEL-5 melanoma): > 100 µM
TGI (LOX IMVI melanoma): > 100 µM
TGI (SK-MEL-28 melanoma): > 100 µM
TGI (SF-539 CNS): > 100 µM
TGI (HOP-92 NSCLC): > 100 µM
TGI (SNB-75 CNS): > 100 µM
TGI (UACC-62 melanoma): > 100 µM
TGI (T-47D breast): > 100 µM
TGI (KM12 colon): > 100 µM
TGI (MALME-3M melanoma): > 100 µM
TGI (786-0 renal): > 100 µM
TGI (HOP-62 NSCLC): > 100 µM
TGI (SN12C renal): > 100 µM
TGI (ACHN renal): > 100 µM
TGI (M14 melanoma): > 100 µM
TGI (SW-620 colon): > 100 µM
TGI (SK-OV-3 ovarian): > 100 µM
TGI (U251 CNS): > 100 µM
TGI (HCT-15 colon): > 100 µM
TGI (NCI-H460 lung): > 100 µM
TGI (COLO 205 colon): > 100 µM
TGI (OVCAR-3 ovarian): > 100 µM
TGI (HCC-2998 colon): > 100 µM
TGI (HS 578T breast): > 100 µM
TGI (CAKI-1 renal): > 100 µM
TGI (PC-3 prostate): > 100 µM
TGI (NCI-H522 lung): > 100 µM
TGI (OVCAR-8 ovarian): > 100 µM
TGI (HL-60(TB) leukemia): > 100 µM
TGI (MOLT-4 leukemia): > 100 µM
